{"source": "patent US20090274626A1", "about": "“TARGETING TNF-alpha CONVERTING ENZYME(TACE)- DEPENDENT GROWTH FACTOR SHEDDING IN CANCER THERAPY” (The Regents of the University of California, priority 2005, published 2009)", "key": {"T4-2 cells [1]": {"test_system": "T4-2 cells", "assay": "3D lrECM (Matrigel) culture of T4-2 cells: reversion of malignant phenotype, polarity, colony size", "type": "cell-based, human", "experimental": "(§1) For 3D lrECM culture, T4-2 cells were seeded at 21000 cells per cm^2 on top of Matrigel, overlaid with H14 medium containing 5% Matrigel (BD Biosciences, San Jose, Calif.), and treated with 80 nM AG1478, 20 μM TAPI-2 or the relevant vehicle controls.\n(§2) Silencer™ siRNAs against TACE (Ambion, Austin, Tex.) were also transfected in according to the Reverse Transfection protocol of Invitrogen. siRNAs against the following TACE sense strand sequences were transfected either individually (100 nM) or as a pool (33.3 nM each): […]tt (SEQ ID NO: 2), GCAGCAt[…]tt (SEQ ID NO:3) and […]tt (SEQ ID NO: 4). For 3D culture assays, T4-2 cells were trypsinized post-transfection and plated as single cells in Matrigel. Knockdown was assessed by western blot from a parallel transfection 48 hrs post-transfection. Random siRNA sequence was used as a negative control.\nIndirect immunofluorescence. Colonies were solubilized from […] culture by shaking in PBS/0.05M EDTA on ice for 30 mins, fixed in 4% paraformaldehyde, permeabilized, stained with anti-α6-integrin (Chemicon, Temecula, Calif.) and counterstained with DAPI.\n(§3) Quantitation of colony size in the 3D lrECM culture was performed by image analysis. Representative images were captured using a digital camera attached to a phase contrast microscope. The high resolution digital images were then analyzed using NIH Image analysis software and the cross-sectional area of each colony was determined for many colonies. This process was hand-curated to ensure that aggregates of colonies were not measured as a single colony."}, "T4-2 cells [2]": {"test_system": "T4-2 cells", "assay": "Proliferation assay (WST) of T4-2 cells in 2D culture", "type": "cell-based, human", "experimental": "Proliferation assays. HMT3522 cells were seeded in 96 well plates and treated (in triplicate) as described in the figure legends. To determine relative growth, 0.1 volumes of WST cell proliferation analysis reagent (Roche, Indianapolis, Ind.) was added to the medium and its formazan metabolite was measured by absorbance at 460 nm."}, "T4-2 cells [3]": {"test_system": "T4-2 cells", "assay": "ELISA of AREG and TGFα shed into conditioned medium of T4-2 cells", "type": "cell-based, human", "details": "TAPI-2-treated T4-2 cells", "experimental": "as §2\n(§4) ELISA. Equal numbers of cells were washed three times and allowed to condition medium for 90 minutes. The amount of AREG and TGFα accumulating in the medium was determined by using specific ELISA assays (R & D Systems, Minneapolis, Minn.) according to the manufacturer's instructions."}, "[4]": {"test_system": "signaling kinases downstream of the EGFR", "assay": "Western blot of basal activity of signaling kinases downstream of the EGFR in T4-2 cells", "type": "cell-based, human", "details": "addition of TAPI-2", "experimental": "Western blotting. Cells were lysed in 50 mM Tris.HCl pH 7.5, 150 mM NaCl, 0.5% NP40 supplemented with protease and phosphatase inhibitors (Calbiochem, San Diego, Calif.) and clarified by centrifugation. 50 μg of each sample was fractionated by SDS-PAGE, transferred to nitrocellulose membranes and probed with antibodies against the following proteins: phospho-MAPK, Total MAPK, phospho-p70S6-Kinase, (Cell Signaling Technology, MA). E-cadherin (BD Biosciences, CA) was used as a loading control. Blots were developed using Supersignal West Femto (Pierce, Rockland, Ill.). Images were captured using a Fluor Chem 8900 imager (Alpha Innotech, San Leandro, Calif.)."}, "T4-2 cells [5]": {"test_system": "T4-2 cells", "assay": "Relative proliferation of T4-2 cells with AG 1478 with or without TAPI-2 (sensitization, FIG. 5)", "type": "cell-based, human", "details": "10 μM TAPI-2; shift of AG 1478 proliferation curve", "experimental": "FIG. 5. […] T4-2 cells were allowed to adhere to 48 well plates. Drugs were added at the indicated concentrations. Conditions were analyzed in triplicate. For comparison, all data were normalized to the 100%.\n(FIG. 5) In this experiment, T4-2 cells were allowed to adhere to 48 well plates. Drugs, AG 1478 and TAPI-2, were added at various concentrations of 0.001 μM, 0.01 μM, 0.1 μM, 1 μM, 10 μM and 100 μM. Conditions were analyzed in triplicate. For comparison, all data were normalized to the 100%."}, "T4-2 cells [6]": {"test_system": "T4-2 cells", "assay": "Cytotoxicity of TAPI-2 at the concentration used", "type": "cell-based, human", "details": "data not shown"}, "S1 cells": {"test_system": "S1 cells", "assay": "Acinar morphogenesis of S1 cells in the presence of soluble EGF", "type": "cell-based, human", "details": "data not shown", "experimental": "Cell culture All reagents were purchased from SIGMA (St. Louis, Mo.) except where otherwise noted. HMT3522 cells were cultivated on 2D and 3D substrata in H14 medium, a 50:50 mix of DMEM/F12 (UCSF Cell culture Facility, San Francisco, Calif.) supplemented with 5 μg/ml prolactin, 250 ng/ml insulin, 1.4×10^−6 M hydrocortisone, 10^−10 M β-estradiol, 2.6 ng/ml sodium selenite and 10 μg/ml transferrin. S1 cells were additionally supplemented with 10 ng/ml EGF. In various experiments, cells were supplemented with AREG, TACE, TGFα. In all cases, AREG and TGFα were used at the same molar concentration as EGF ([…])."}, "T4-2 cells [7]": {"test_system": "T4-2 cells", "assay": "ELISA of EGFR ligands in conditioned medium of T4-2 3D lrECM cultures", "type": "cell-based, human", "details": "TAPI-2 treatment as printed in legend", "experimental": "as §2, §4"}, "[8]": {"test_system": "T4-2 cells expressing AREGΔTM", "assay": "3D culture of T4-2 cells expressing soluble AREG (AREGΔTM): colony size and morphology", "type": "cell-based, human", "details": "T4-2 cells producing soluble AREG", "experimental": "as §1\n(§5) Amphotropic retroviruses were generated by transfection (Lipofectamine; Invitrogen, Carlsbad, Calif.) of the Phoenix packaging cell line (a gift of Dr. Gary Nolan, Stanford) with pBM-IRES-Puro or derivatives containing the AREG or TGFα open reading frames. Two million phoenix cells per 6 cm dish were plated the day prior to transfection and transfected with 2 μg of the appropriate retroviral construct. Retrovirus-containing culture medium was harvested after 48 hrs, supplemented with polybrene to 5 μg/ml and added to HMT3522 cells at 30-50% confluence. Pools of stable infectants were selected in 1 μg/ml puromycin.\n(§6) Cloning of pro-AREG and pro-TGFα. The open reading frames of these genes were amplified by PCR from T4-2 cDNA. […]\nas §3, with “Representative images were captured using a digital camera attached to a phase contrast microscope.” left out"}, "[9]": {"test_system": "T4-2 cells expressing TGFαΔTM", "assay": "3D culture of T4-2 cells expressing soluble TGFα (TGFαΔTM): colony size and morphology", "type": "cell-based, human", "details": "T4-2 cells producing soluble TGFα", "experimental": "as §1, §5, §6\nas §3, with “Representative images were captured using a digital camera attached to a phase contrast microscope.” left out"}, "MCF-7": {"test_system": "MCF-7", "assay": "ELISA of AREG shedding from MCF-7 cells", "type": "cell-based, human", "details": "MCF-7, 20 μM TAPI-2, 90 minutes", "experimental": "(§7) FIG. 8. Suppression of growth factor shedding by TAPI-2 in a panel of breast cancer cell lines. A: Three AREG-expressing breast cancer cell lines were identified. Equal number of cells were treated with 20 μM TAPI-2 or vehicle for 90 minutes and AREG shedding was quantified by ELISA. B: Two breast cancer cell lines expressing TGFα were identified and treated as described in (A). TAPI-2 suppresses TGFα shedding.\nas §4"}, "HCC1500": {"test_system": "HCC1500", "assay": "ELISA of AREG and TGFα shedding from HCC1500 cells", "type": "cell-based, human", "details": "HCC1500, 20 μM TAPI-2, 90 minutes", "experimental": "as §7, §4"}, "ZR75B": {"test_system": "ZR75B", "assay": "ELISA of AREG shedding from ZR75B cells", "type": "cell-based, human", "details": "20 μM TAPI-2, 90 minutes", "experimental": "as §7, §4"}, "MDA-MB-468": {"test_system": "MDA-MB-468", "assay": "ELISA of TGFα shedding from MDA-MB-468 cells", "type": "cell-based, human", "details": "MDA-MB-468, 20 μM TAPI-2, 90 minutes", "experimental": "as §7, §4"}, "TACE": {"target": "TACE (Homo sapiens, UniProt P78536)", "sequence (P78536 215-824)": "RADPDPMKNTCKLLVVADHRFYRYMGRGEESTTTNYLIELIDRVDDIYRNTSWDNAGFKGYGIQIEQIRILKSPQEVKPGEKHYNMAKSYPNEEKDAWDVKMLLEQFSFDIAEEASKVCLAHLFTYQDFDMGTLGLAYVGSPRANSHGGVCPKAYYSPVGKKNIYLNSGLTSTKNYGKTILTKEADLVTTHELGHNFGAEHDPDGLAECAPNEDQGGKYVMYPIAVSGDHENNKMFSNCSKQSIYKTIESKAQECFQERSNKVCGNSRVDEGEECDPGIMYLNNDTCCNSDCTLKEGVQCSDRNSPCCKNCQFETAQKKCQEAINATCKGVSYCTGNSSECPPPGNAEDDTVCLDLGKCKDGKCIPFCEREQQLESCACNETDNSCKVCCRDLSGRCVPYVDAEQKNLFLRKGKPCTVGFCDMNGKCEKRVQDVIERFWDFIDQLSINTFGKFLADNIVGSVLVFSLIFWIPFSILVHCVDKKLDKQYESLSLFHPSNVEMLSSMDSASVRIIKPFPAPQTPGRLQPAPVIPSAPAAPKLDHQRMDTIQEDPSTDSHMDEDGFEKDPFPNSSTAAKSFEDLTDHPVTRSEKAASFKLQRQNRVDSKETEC", "details": "cited from earlier work"}, "[10]": {"test_system": "LPS-stimulated human peripheral blood mononuclear cells (PBMC)", "details": "cited from earlier work"}}, "note": "“Also recorded” adds a separate entry of the source."}
{"compound": "CC(C)C[C@H](CC(=O)NO)C(=O)N[C@H](C(=O)N[C@@H](C)C(=O)NCCN)C(C)(C)C", "note": "[TAPI-2, N—(R)-[2-(Hydroxyaminocarbonyl)methyl]-4-methylpentanoyl-L-t-butyl-alanyl-L-alanine, 2-aminoethyl Amide]", "values": [{"measurement": "restoration of epithelial polarity (basal localization of α6-integrin)", "setting": "T4-2 cells [1]; 3D culture, TAPI-2 vs vehicle", "value": "restoration of epithelial polarity"}, {"measurement": "colony size (cross-sectional area) vs vehicle", "setting": "T4-2 cells [1]; 3D culture, four days, p<0.001", "value": "significantly smaller than those formed by cells treated with vehicle alone; also recorded: significantly different from controls"}, {"measurement": "reversion of the malignant phenotype of T4-2 cells", "setting": "T4-2 cells [1]; 3D lrECM culture, 80 nM AG1478 or 20 μM TAPI-2 vs vehicle", "value": "resulted in a reversion of the malignant phenotype"}, {"measurement": "TAPI-2-induced reduction of T4-2 proliferation on addition of EGF", "setting": "T4-2 cells [2]; 2D culture, soluble/exogenous EGF added", "value": "overcome by addition of exogenous EGF; also recorded: completely overcome by addition of soluble EGF"}, {"measurement": "proliferation of T4-2 cells", "setting": "T4-2 cells [2]; 2D cultures, vs 0 μM TAPI-2", "value": "dose-dependent decrease in proliferation; also recorded: dose-dependent reduction in T4-2 cell proliferation"}, {"measurement": "shedding of AREG (ELISA of CM)", "setting": "T4-2 cells [3]", "value": "suppresses the shedding of both AREG and TGFα"}, {"measurement": "shedding of TGFα (ELISA of CM)", "setting": "T4-2 cells [3]", "value": "suppresses the shedding of both AREG and TGFα"}, {"measurement": "basal activities of signaling kinases downstream of the EGFR", "setting": "[4]", "value": "significantly suppressed"}, {"measurement": "sensitization of T4-2 cells to small molecule EGFR inhibitor (AG1478)", "setting": "T4-2 cells [5]", "value": "sensitizes T4-2 cells to the effect of the EGFR inhibitor, AG1478; also recorded: four-fold sensitization"}, {"measurement": "cytotoxicity", "setting": "T4-2 cells [6]", "value": "not cytotoxic at the concentration used"}, {"measurement": "interference with normal acinar morphogenesis of S1 cells", "setting": "S1 cells", "value": "nor did it interfere with the ability of S1 cells to execute normal acinar morphogenesis"}, {"measurement": "levels of shed ligands in conditioned medium (FIG. 6C)", "setting": "T4-2 cells [7]", "value": "reduced"}, {"measurement": "response to TAPI-2 by criteria of colony size and morphology", "setting": "[8]", "value": "completely resistant to TAPI-2"}, {"measurement": "response to TAPI-2 by criteria of colony size and morphology", "setting": "[9]", "value": "completely resistant to TAPI-2"}, {"measurement": "AREG shedding", "setting": "MCF-7", "value": "significantly reduced ligand shedding"}, {"measurement": "AREG shedding", "setting": "HCC1500", "value": "significantly reduced ligand shedding"}, {"measurement": "TGFα shedding", "setting": "HCC1500", "value": "significantly reduced ligand shedding"}, {"measurement": "AREG shedding", "setting": "ZR75B", "value": "significantly reduced ligand shedding"}, {"measurement": "TGFα shedding", "setting": "MDA-MB-468", "value": "significantly reduced ligand shedding"}]}
{"compound": "TRWLVYFSRPYLVAT (synthetic peptide shown to inhibit TACE activity)", "values": [{"measurement": "binding to TACE", "setting": "TACE", "value": "bind to TACE"}, {"measurement": "TNF-alpha release", "setting": "[10]", "value": "inhibit the TNF-alpha release"}]}
